Measured values reported in patent US12252524B2, “GIP/GLP1 co-agonist compounds” (Eli Lilly and Company, priority 2018, dated 2025).
Numbered stars: 1 amine (or outer) side, 2 acyl side, 3 side chain; on linkers, the order of the positions; unused ones are H or OH. Square brackets hold non-standard residues; d marks the D form. Side chains are listed from the residue outwards. Peptide text beside a SMILES is read from it. * marks the point of attachment. C20 diacid = O=C(O)CCCCCCCCCCCCCCCCCCC(=O)*; γGlu = O=C(O)[C@H](CCC(=O)[*:2])N[*:1]; αMeL = CC(C)C[C@](C)(N)C(=O)O; αMeK = C[C@](N)(CCCCN)C(=O)O; AEEA = NCCOCCOCC(=O)O; Aib = CC(C)(N)C(=O)O

Columns and labels:
[1] = target: T1, gastric inhibitory peptide receptor (GIPR) (Homo sapiens, UniProt P48546); test: cAMP pharmacological functional assay in presence of casein, hGIPR; assay type: cell-based; conditions: HEK293 cells expressing hGIPR, 0.1% Casein, geometric mean; read-out: hGIPR cAMP Rel EC50 nM (SEM, n)
T1 sequence (P48546 22-466): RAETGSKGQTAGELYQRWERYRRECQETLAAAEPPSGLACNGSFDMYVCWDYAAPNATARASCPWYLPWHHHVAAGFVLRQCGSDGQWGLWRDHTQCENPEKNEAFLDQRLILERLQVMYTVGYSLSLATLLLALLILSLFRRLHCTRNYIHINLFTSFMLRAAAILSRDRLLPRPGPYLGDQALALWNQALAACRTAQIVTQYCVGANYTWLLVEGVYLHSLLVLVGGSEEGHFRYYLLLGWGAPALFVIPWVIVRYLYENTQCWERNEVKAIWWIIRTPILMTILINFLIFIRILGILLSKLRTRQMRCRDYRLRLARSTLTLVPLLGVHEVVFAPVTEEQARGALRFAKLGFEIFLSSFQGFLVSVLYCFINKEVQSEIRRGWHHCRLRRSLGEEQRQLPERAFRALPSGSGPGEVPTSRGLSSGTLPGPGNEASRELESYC

human GLP-1R = human GLP-1R (Homo sapiens, UniProt P43220); test: [125I]-GLP-1 binding (SPA), human GLP-1 receptor; parameters: expressed in transfected cells; crude membranes; conditions: read-out: hGLP1R Ki, (nM) (SEM, n)
human GLP-1R, sequence (P43220 24-463): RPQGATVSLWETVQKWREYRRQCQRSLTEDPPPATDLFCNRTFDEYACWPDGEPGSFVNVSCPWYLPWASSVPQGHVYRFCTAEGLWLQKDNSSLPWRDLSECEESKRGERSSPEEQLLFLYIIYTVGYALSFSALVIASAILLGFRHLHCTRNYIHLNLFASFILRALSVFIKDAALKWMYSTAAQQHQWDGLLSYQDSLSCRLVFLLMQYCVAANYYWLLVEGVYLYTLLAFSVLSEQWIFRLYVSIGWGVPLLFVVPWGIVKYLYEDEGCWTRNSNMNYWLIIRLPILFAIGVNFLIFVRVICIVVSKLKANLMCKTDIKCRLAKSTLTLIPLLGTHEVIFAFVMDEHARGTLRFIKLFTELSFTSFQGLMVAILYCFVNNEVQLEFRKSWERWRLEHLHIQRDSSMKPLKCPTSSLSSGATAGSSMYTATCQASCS
Procedure, shortened: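 Assay buffer: HEPES 25 mM, pH 7.4, CaCl2 2.5 mM, MgCl2 1 mM, with EDTA-free protease inhibitors. Receptor came from crude cell membranes prepared by homogenization and centrifugation at 4° C. IC50s came from four-parameter fits (maximum, minimum, IC50, Hill slope) and were expressed as Ki geometric means with SEM.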

human GIP receptor = target: T2, human GIP receptor (Homo sapiens, UniProt P48546); test: [125I]-GIP binding (SPA), human GIP receptor; conditions: read-out: hGIPR Ki, nM (SEM, n)
T2 construct: expressed in transfected cells; crude membranes
T2 sequence (P48546 22-466): T1 sequence (P48546 22-466)

human Gcg receptor = target: T3, human Gcg receptor (Homo sapiens, UniProt P47871); test: [125I]-Glucagon binding (SPA), human Gcg receptor; conditions: read-out: hGLcgR Ki, nM (SEM, n)
T3 construct: expressed in transfected cells; crude membranes
T3 sequence (P47871 26-477): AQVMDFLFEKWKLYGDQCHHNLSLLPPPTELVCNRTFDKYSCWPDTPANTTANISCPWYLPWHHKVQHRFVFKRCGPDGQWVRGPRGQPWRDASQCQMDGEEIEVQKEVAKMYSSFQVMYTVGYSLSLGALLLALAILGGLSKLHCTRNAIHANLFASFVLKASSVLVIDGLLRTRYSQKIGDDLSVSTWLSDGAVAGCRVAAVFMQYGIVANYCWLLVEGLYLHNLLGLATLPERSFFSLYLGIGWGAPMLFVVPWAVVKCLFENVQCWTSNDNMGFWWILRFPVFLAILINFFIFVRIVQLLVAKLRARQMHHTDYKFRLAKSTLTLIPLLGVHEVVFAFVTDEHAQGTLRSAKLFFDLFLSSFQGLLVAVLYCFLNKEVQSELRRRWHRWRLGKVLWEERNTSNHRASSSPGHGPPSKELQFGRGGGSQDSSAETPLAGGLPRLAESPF
Procedure, shortened: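 Cell pellets were lysed in hypotonic Tris buffer, pH 7.5, homogenized, and spun at low then high speed to give crude membranes. Ki was derived from the fitted IC50.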

[2] = target: human GLP-1 receptor (GLP-1R) (Homo sapiens, UniProt P43220); test: cAMP pharmacological functional assay in presence of casein, hGLP-1R; assay type: cell-based; conditions: HEK293 cells expressing hGLP-1R, 0.1% Casein, geometric mean; read-out: hGLP1R cAMP Rel EC50 nM (SEM, n)
human GLP-1 receptor (GLP-1R), sequence (P43220 24-463): as the sequence (P43220 24-463) above

| SMILES | EC50 [1] | Ki (human GLP-1R) | Ki (human GIP receptor) | Ki (human Gcg receptor) | EC50 [2] |
| --- | --- | --- | --- | --- | --- |
| CC[C@H](C)[C@H](NC(=O)[C@H](CCCCN)NC(=O)[C@H](CC(=O)O)NC(=O)[C@H](CC(C)C)NC(=O)[C@H](CC(C)C)NC(=O)[C@@H](NC(=O)[C@H](CO)NC(=O)[C@H](Cc1ccc(O)cc1)NC(=O)[C@H](CC(=O)O)NC(=O)[C@H](CO)NC(=O)[C@@H](NC(=O)[C@H](Cc1ccccc1)NC(=O)[C@@H](NC(=O)CNC(=O)[C@H](CCC(=O)O)NC(=O)C(C)(C)NC(=O)[C@@H](N)Cc1ccc(O)cc1)[C@@H](C)O)[C@@H](C)O)[C@@H](C)CC)C(=O)N[C@@H](C)C(=O)N[C@@H](CCC(N)=O)C(=O)NC(C)(C)C(=O)N[C@@H](C)C(=O)N[C@@H](Cc1ccccc1)C(=O)N[C@H](C(=O)N[C@@H](CCC(=O)O)C(=O)N[C@@H](Cc1ccc(O)cc1)C(=O)N[C@@H](CC(C)C)C(=O)N[C@H](C(=O)N[C@@H](CCC(=O)O)C(=O)NCC(=O)NCC(=O)N1CCC[C@H]1C(=O)N[C@@H](CO)C(=O)N[C@@H](CO)C(=O)NCC(=O)N[C@@H](C)C(=O)N1CCC[C@H]1C(=O)N1CCC[C@H]1C(=O)N1CCC[C@H]1C(=O)N[C@@H](CCCCNC(=O)COCCOCCNC(=O)COCCOCCNC(=O)CC[C@H](NC(=O)CCCCCCCCCCCCCCCCCCC(=O)O)C(=O)O)C(N)=O)[C@@H](C)CC)[C@@H](C)CC [Example 48] (H-Y[Aib]EGTFTSDYSILLDKIAQ[Aib]AFIEYLIEGGPSSGAPPPK([AEEA-AEEA-γGlu-C20 diacid])-NH2; N-terminus assumed) | 0.168 nM | 15.7 nM | 0.074 nM | 111 nM | 0.691 nM |
| CC[C@H](C)[C@H](NC(=O)[C@H](CC(C)C)NC(=O)[C@H](Cc1ccc(O)cc1)NC(=O)[C@H](CCC(=O)O)NC(=O)[C@@H](NC(=O)[C@H](Cc1ccccc1)NC(=O)[C@H](C)NC(=O)C(C)(C)NC(=O)[C@H](CCC(N)=O)NC(=O)[C@H](C)NC(=O)[C@H](CCCCNC(=O)COCCOCCNC(=O)COCCOCCNC(=O)CC[C@H](NC(=O)CCCCCCCCCCCCCCCCCCC(=O)O)C(=O)O)NC(=O)[C@H](CCC(=O)O)NC(=O)[C@H](CC(=O)O)NC(=O)[C@H](CC(C)C)NC(=O)[C@](C)(CC(C)C)NC(=O)[C@@H](NC(=O)[C@H](CO)NC(=O)[C@H](Cc1ccc(O)cc1)NC(=O)[C@H](CC(=O)O)NC(=O)[C@H](CO)NC(=O)[C@@H](NC(=O)[C@H](Cc1ccccc1)NC(=O)[C@@H](NC(=O)CNC(=O)[C@H](CCC(=O)O)NC(=O)C(C)(C)NC(=O)[C@@H](N)Cc1ccc(O)cc1)[C@@H](C)O)[C@@H](C)O)[C@@H](C)CC)[C@@H](C)CC)C(=O)N[C@@H](CCC(=O)O)C(=O)NCC(=O)NCC(N)=O [Example 63] (H-Y[Aib]EGTFTSDYSI[αMeL]LDEK([AEEA-AEEA-γGlu-C20 diacid])AQ[Aib]AFIEYLIEGG-NH2) | 0.0925 nM | 7.79 nM | 0.141 nM | 273 nM | 0.19 nM |
| CC[C@H](C)[C@H](NC(=O)[C@H](CCCCN)NC(=O)[C@H](CC(=O)O)NC(=O)[C@H](CC(C)C)NC(=O)[C@H](CC(C)C)NC(=O)[C@@H](NC(=O)[C@H](CO)NC(=O)[C@H](Cc1ccc(O)cc1)NC(=O)[C@H](CC(=O)O)NC(=O)[C@H](CO)NC(=O)[C@@H](NC(=O)[C@H](Cc1ccccc1)NC(=O)[C@@H](NC(=O)CNC(=O)[C@H](CCC(=O)O)NC(=O)C(C)(C)NC(=O)[C@@H](N)Cc1ccc(O)cc1)[C@@H](C)O)[C@@H](C)O)[C@@H](C)CC)C(=O)N[C@@H](C)C(=O)N[C@@H](CCC(N)=O)C(=O)NC(C)(C)C(=O)N[C@@H](C)C(=O)N[C@@H](Cc1ccccc1)C(=O)N[C@H](C(=O)N[C@@H](CCC(=O)O)C(=O)N[C@@H](Cc1ccc(O)cc1)C(=O)N[C@@H](CC(C)C)C(=O)N[C@@H](CCCCNC(=O)COCCOCCNC(=O)COCCOCCNC(=O)CC[C@H](NC(=O)CCCCCCCCCCCCCCCCCCC(=O)O)C(=O)O)C(=O)N[C@@H](CCC(=O)O)C(=O)NCC(=O)NCC(=O)N1CCC[C@H]1C(=O)N[C@@H](CO)C(=O)N[C@@H](CO)C(=O)NCC(=O)N[C@@H](C)C(=O)N1CCC[C@H]1C(=O)N1CCC[C@H]1C(=O)N1CCC[C@H]1C(=O)N[C@@H](CO)C(N)=O)[C@@H](C)CC [Example 36] (H-Y[Aib]EGTFTSDYSILLDKIAQ[Aib]AFIEYLK([AEEA-AEEA-γGlu-C20 diacid])EGGPSSGAPPPS-NH2) | 0.309 nM | 16.4 nM | 0.141 nM | 413 nM | 2.29 nM |
| CC[C@H](C)[C@H](NC(=O)[C@H](CC(C)C)NC(=O)[C@H](Cc1ccc(O)cc1)NC(=O)[C@H](CCC(=O)O)NC(=O)[C@@H](NC(=O)[C@H](Cc1ccccc1)NC(=O)[C@H](C)NC(=O)[C@H](Cc1c[nH]cn1)NC(=O)[C@H](CCC(N)=O)NC(=O)[C@H](C)NC(=O)[C@H](CCCCNC(=O)COCCOCCNC(=O)COCCOCCNC(=O)CC[C@H](NC(=O)CCCCCCCCCCCCCCCCCCC(=O)O)C(=O)O)NC(=O)[C@H](CCCCN)NC(=O)[C@H](CC(=O)O)NC(=O)[C@H](CC(C)C)NC(=O)[C@](C)(CC(C)C)NC(=O)[C@@H](NC(=O)[C@H](CO)NC(=O)[C@H](Cc1ccc(O)cc1)NC(=O)[C@H](CC(=O)O)NC(=O)[C@H](CO)NC(=O)[C@@H](NC(=O)[C@H](Cc1ccccc1)NC(=O)[C@@H](NC(=O)CNC(=O)[C@H](CCC(=O)O)NC(=O)C(C)(C)NC(=O)[C@@H](N)Cc1c[nH]cn1)[C@@H](C)O)[C@@H](C)O)[C@@H](C)CC)[C@@H](C)CC)C(=O)N[C@@H](CCC(=O)O)C(=O)NCC(=O)NCC(=O)N1CCC[C@H]1C(=O)N[C@@H](CO)C(=O)N[C@@H](CO)C(=O)NCC(=O)N[C@@H](C)C(=O)N1CCC[C@H]1C(=O)N1CCC[C@H]1C(=O)N1CCC[C@H]1C(=O)N[C@@H](CO)C(N)=O [Example 54] (H-H[Aib]EGTFTSDYSI[αMeL]LDKK([AEEA-AEEA-γGlu-C20 diacid])AQHAFIEYLIEGGPSSGAPPPS-NH2) | 1.57 nM | 1.66 nM | 0.965 nM | 333 nM | 0.0242 nM |
| CC[C@H](C)[C@H](NC(=O)[C@H](Cc1ccccc1)NC(=O)[C@H](C)NC(=O)[C@](C)(CCCCN)NC(=O)[C@H](CCC(N)=O)NC(=O)[C@H](C)NC(=O)[C@H](CCCCNC(=O)COCCOCCNC(=O)COCCOCCNC(=O)CC[C@H](NC(=O)CCCCCCCCCCCCCCCCCCC(=O)O)C(=O)O)NC(=O)[C@H](CCC(=O)O)NC(=O)[C@H](CC(=O)O)NC(=O)[C@H](CC(C)C)NC(=O)[C@](C)(CC(C)C)NC(=O)[C@@H](NC(=O)[C@H](CO)NC(=O)[C@H](Cc1ccc(O)cc1)NC(=O)[C@H](CC(=O)O)NC(=O)[C@H](CO)NC(=O)[C@@H](NC(=O)[C@H](Cc1ccccc1)NC(=O)[C@@H](NC(=O)CNC(=O)[C@H](CCC(=O)O)NC(=O)C(C)(C)NC(=O)[C@@H](N)Cc1ccc(O)cc1)[C@@H](C)O)[C@@H](C)O)[C@@H](C)CC)C(=O)N[C@@H](CCC(=O)O)C(=O)N[C@@H](Cc1ccc(O)cc1)C(=O)N[C@@H](CC(C)C)C(=O)N[C@@H](CC(C)C)C(=O)N[C@@H](CCC(=O)O)C(=O)NCC(=O)NCC(=O)N1CCC[C@H]1C(=O)N[C@@H](CO)C(=O)N[C@@H](CO)C(=O)NCC(=O)N[C@@H](C)C(=O)N1CCC[C@H]1C(=O)N1CCC[C@H]1C(=O)N1CCC[C@H]1C(=O)N[C@@H](CO)C(N)=O [Example 21] (H-Y[Aib]EGTFTSDYSI[αMeL]LDEK([AEEA-AEEA-γGlu-C20 diacid])AQ[αMeK]AFIEYLLEGGPSSGAPPPS-NH2) | 0.0748 nM | 14.5 nM | 0.529 nM | 149 nM | 0.16 nM |
